# Molecular target: T1, bovine cardiac myofibrils (Bos taurus, UniProt Q9BE39)
# T1 construct: full-length cardiac myosin in the context of the native sarcomere, skinned myofibril assays were performed; from tissue; host or cells: bovine cardiac left ventricular tissue, detergent-skinned (Triton X-100) myofibrils
# Experiment: Skinned myofibril ATPase assay (PK/LDH-coupled), CDMF75
# Assay type: biochemical
# Conditions: inhibition of steady-state ATPase activity of bovine cardiac myofibrils at 75% Ca2+ activation (pCa75)
# Procedure: To evaluate the effect of compounds on the ATPase activity of full-length cardiac myosin in the context of the native sarcomere, skinned myofibril assays were performed. Bovine cardiac myofibrils were obtained by homogenizing bovine cardiac left ventricular tissue in the presence of a detergent such as triton X-100. Such treatment removes membranes and a majority of the soluble cytoplasmic proteins but leaves intact the cardiac sarcomeric acto-myosin apparatus. Myofibril preparations retain the ability to hydrolyze ATP in an Ca^2+ regulated manner. ATPase activities of such myofibril preparations in the presence and absence of compounds were assayed at Ca^2+ concentrations activating to a defined fraction of the maximal rate (i.e., 25%, 75%). Small molecule agents were assessed for their ability to inhibit the steady-state ATPase activity of bovine cardiac myofibrils using pyruvate kinase and lactate dehydrogenase (PK/LDH)-coupled enzyme system. This assay regenerates myosin-produced ADP into ATP by oxidizing NADH, producing an absorbance change at 340 nm. Prior to testing small molecule agents, the bovine cardiac myofibrils were assessed for their calcium responsiveness and the calcium concentration that achieves either a 50% (pCa50) or 75% (pCa75) activation of the myofibril system was chosen as the final condition for assessing the inhibitory activity of the small molecule agents. All enzymatic activity was measured in a buffered solution containing 12 mM PIPES (piperazine-N,N′-bis(2-ethanesulfonic acid), 2 mM magnesium chloride at pH 6.8 (PM 12 buffer). Final assay conditions were 1 mg/mL of bovine cardiac myofibrils, 4 U/mL pyruvate kinase, 6 U/mL lactate dehydrogenase, 50 μM ATP, 0.1 mg/mL BSA (bovine serum albumin), 10 ppm antifoam, 1 mM DTT, 0.5 mM NADH, 1.5 mM PEP, 0.6 mM EGTA, and an amount of CaCl2 sufficient to achieve either 50% or 75% activation of the myofibril ATPase activity. Results for compounds tested are provided in Table A. Compounds tested were prepared in accordance with the synthetic procedures described herein.
# T1 sequence (Q9BE39 whole entry): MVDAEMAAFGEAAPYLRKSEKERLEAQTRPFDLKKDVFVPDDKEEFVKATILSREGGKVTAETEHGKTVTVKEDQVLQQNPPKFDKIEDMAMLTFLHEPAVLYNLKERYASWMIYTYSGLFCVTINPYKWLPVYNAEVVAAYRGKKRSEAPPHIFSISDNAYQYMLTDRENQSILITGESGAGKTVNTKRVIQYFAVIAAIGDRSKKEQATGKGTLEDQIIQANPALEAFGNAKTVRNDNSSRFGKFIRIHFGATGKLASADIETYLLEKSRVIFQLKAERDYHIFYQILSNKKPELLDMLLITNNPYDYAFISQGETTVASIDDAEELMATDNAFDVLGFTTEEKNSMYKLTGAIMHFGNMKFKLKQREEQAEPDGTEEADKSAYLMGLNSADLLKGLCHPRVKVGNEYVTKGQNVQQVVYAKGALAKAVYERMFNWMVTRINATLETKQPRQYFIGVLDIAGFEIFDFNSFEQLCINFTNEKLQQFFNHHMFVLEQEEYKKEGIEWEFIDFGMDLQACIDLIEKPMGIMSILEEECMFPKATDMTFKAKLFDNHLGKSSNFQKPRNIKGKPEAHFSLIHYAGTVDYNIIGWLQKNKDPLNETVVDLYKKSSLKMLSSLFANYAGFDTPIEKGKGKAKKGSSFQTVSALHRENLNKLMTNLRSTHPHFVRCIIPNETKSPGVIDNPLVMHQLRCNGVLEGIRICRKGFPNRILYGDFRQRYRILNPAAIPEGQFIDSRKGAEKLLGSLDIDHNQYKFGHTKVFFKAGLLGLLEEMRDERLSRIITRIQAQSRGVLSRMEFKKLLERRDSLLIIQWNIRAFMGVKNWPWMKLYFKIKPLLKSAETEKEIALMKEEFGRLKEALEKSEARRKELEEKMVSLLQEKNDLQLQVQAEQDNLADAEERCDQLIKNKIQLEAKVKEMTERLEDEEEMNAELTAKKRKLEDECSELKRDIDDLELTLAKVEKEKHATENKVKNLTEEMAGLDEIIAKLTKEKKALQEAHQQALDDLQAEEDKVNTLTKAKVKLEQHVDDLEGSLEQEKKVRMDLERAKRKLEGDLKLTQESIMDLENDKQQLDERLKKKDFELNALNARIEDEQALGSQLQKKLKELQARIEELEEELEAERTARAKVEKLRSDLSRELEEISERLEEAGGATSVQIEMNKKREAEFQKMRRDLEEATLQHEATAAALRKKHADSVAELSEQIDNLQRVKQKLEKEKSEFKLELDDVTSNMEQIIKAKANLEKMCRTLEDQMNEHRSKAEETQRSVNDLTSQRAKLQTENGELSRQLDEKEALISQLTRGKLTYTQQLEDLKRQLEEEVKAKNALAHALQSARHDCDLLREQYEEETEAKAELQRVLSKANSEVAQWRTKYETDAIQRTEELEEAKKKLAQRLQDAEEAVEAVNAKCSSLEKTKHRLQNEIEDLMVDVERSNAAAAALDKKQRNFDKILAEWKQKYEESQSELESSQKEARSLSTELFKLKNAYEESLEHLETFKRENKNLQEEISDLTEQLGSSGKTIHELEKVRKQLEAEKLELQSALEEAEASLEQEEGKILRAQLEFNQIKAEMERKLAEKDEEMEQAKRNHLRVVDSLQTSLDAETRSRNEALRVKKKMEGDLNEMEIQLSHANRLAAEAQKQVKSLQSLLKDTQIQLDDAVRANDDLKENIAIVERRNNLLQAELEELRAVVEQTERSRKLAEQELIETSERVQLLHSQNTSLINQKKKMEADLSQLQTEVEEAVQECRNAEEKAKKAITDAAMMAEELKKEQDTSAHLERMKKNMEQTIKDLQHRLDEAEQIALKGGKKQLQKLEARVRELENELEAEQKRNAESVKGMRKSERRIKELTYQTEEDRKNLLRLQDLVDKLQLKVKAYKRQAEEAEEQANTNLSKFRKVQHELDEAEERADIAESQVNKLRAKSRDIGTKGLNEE
# T1 sequence (P85100 whole entry partner): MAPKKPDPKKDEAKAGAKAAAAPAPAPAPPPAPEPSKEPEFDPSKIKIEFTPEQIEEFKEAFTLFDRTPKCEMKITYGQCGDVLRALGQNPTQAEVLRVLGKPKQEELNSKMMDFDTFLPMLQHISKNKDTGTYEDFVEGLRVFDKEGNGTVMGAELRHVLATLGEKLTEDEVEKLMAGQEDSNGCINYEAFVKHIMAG
# T1 sequence (Q3SZE5 whole entry partner): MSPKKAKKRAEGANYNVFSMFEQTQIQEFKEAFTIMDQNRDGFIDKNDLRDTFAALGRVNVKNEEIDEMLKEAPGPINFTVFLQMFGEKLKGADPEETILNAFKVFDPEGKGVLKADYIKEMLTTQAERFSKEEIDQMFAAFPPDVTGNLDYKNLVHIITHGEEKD
Structure (SMILES),CDMF75 IC15 [µM],IC50 [µM]
"FC(F)c1nc(-c2ccc(CNc3cnccn3)cc2)no1 [Compound 24, N-(4-(5-(difluoromethyl)-1,2,4-oxadiazol-3-yl)benzyl)pyrazin-2-amine]",0.8,3.1
"Cc1noc(-c2ccc(CNc3cc(Cl)ncn3)cc2)n1 [Compound 18, 6-chloro-N-(4-(3-methyl-1,2,4-oxadiazol-5-yl)benzyl)pyrimidin-4-amine]",0.4,2.1
"Cc1nc(-c2ccc(CNc3ccnc(Cl)n3)cc2)no1 [Compound 12, 2-chloro-N-(4-(5-methyl-1,2,4-oxadiazol-3-yl)benzyl)pyrimidin-4-amine]",2.5,9.8
"Cc1coc(-c2ccc(CNc3cnccn3)cc2)n1 [Compound 69, N-[[4-(4-methyl-1,3-oxazol-2-yl)phenyl]methyl]pyrazin-2-amine]",18.4,> 39.2
"Cc1nc(-c2ccc(CNc3ccc(Cl)cn3)cc2)no1 [Compound 20, 5-chloro-N-(4-(5-methyl-1,2,4-oxadiazol-3-yl)benzyl)pyridin-2-amine]",1.5,5.2
"Fc1cc(CNc2cnccn2)ccc1-c1noc(C(F)(F)F)n1 [Compound 42, N-(3-fluoro-4-(5-(trifluoromethyl)-1,2,4-oxadiazol-3-yl)benzyl)pyrazin-2-amine]",0.8,4.8
"C[C@@H](Nc1cnccn1)c1ccc(-c2noc(C3CC3)n2)cc1 [Compound 31, (R)-N-(1-(4-(5-cyclopropyl-1,2,4-oxadiazol-3-yl)phenyl)ethyl)pyrazin-2-amine]",0.4,1.51
"Cc1cc(-c2ccc(CNc3cnccn3)cc2)on1 [Compound 53, N-(4-(3-methylisoxazol-5-yl)benzyl)pyrazin-2-amine]",2.1,9.4
"c1cnc(NCc2ccc(-c3noc(C4CCC4)n3)cc2)cn1 [Compound 23, N-(4-(5-cyclobutyl-1,2,4-oxadiazol-3-yl)benzyl)pyrazin-2-amine]",0.3,1.4
"Fc1cc(-c2noc(C(F)(F)F)n2)ccc1CNc1cnccn1 [Compound 45, N-(2-fluoro-4-(5-(trifluoromethyl)-1,2,4-oxadiazol-3-yl)benzyl)pyrazin-2-amine]",0.9,4
"Cc1cnn(-c2ccc(CNc3cnccn3)cc2)c1 [Compound 29, N-(4-(4-methyl-1H-pyrazol-1-yl)benzyl)pyrazin-2-amine]",8.1,38.9
"Fc1cc(-c2noc(C3CC3)n2)ccc1CNc1cnccn1 [Compound 47, N-(4-(5-cyclopropyl-1,2,4-oxadiazol-3-yl)-2-fluorobenzyl)pyrazin-2-amine]",0.3,1.7
"COc1cnc(NCc2ccc(-c3cc(C)on3)cc2)cn1 [Compound 67, 5-methoxy-N-(4-(5-methylisoxazol-3-yl)benzyl)pyrazin-2-amine]",0.4,2.2
"Cc1nc(-c2ccc(CNc3cnc(C#N)cn3)cc2)no1 [Compound 10, 5-((4-(5-methyl-1,2,4-oxadiazol-3-yl)benzyl)amino)pyrazine-2-carbonitrile]",1.3,7.6
"Cc1nc(-c2ccc(CNC(=O)c3ccnc(N)c3)cc2)no1 [Compound 60, 2-amino-N-[[4-(5-methyl-1,2,4-oxadiazol-3-yl)phenyl]methyl]pyridine-4-carboxamide]",7.7,30.8
"Cc1nc(-c2ccc3c(c2)CCC3Nc2cnccn2)no1 (centres unmarked) [Compound 55, N-[5-(5-methyl-1,2,4-oxadiazol-3-yl)-2,3-dihydro-1H-inden-1-yl]pyrazin-2-amine]",0.4,1.3
"C[C@@H](Nc1cnccn1)c1ccc(-c2noc(C3CCC3)n2)cc1 [Compound 32, (R)-N-(1-(4-(5-cyclobutyl-1,2,4-oxadiazol-3-yl)phenyl)ethyl)pyrazin-2-amine]",0.3,1.4
"Cc1cc(-c2ccc(CNc3cc(=O)cc[nH]3)cc2)no1 [Compound 68, 2-([[4-(5-methyl-1,2-oxazol-3-yl)phenyl]methyl]amino)-1,4-dihydropyridin-4-one]",>39.2,> 39.2

# Further molecules by falling IC50, results first:
CDMF75 IC15 [µM],IC50 [µM],Structure (SMILES)
0.3,28.6,"Cc1cnc(-c2ccc(CNc3cnccn3)cc2)o1 [Compound 49, N-[[4-(5-methyl-1,3-oxazol-2-yl)phenyl]methyl]pyrazin-2-amine]"
3.6,27.7,"Cc1nc(-c2ccc(CNc3ccncn3)cc2)no1 [Compound 3, N-(4-(5-methyl-1,2,4-oxadiazol-3-yl)benzyl)pyrimidin-4-amine]"
,27,"Cc1nc(-c2ccc(CNc3cc(C4CC4)ncn3)cc2)no1 [Compound 6, 6-cyclopropyl-N-(4-(5-methyl-1,2,4-oxadiazol-3-yl)benzyl)pyrimidin-4-amine]"
6.0,25.8,"COC(=O)NCc1ccc(-c2noc(C)n2)cc1 [Compound 54, methyl (4-(5-methyl-1,2,4-oxadiazol-3-yl)benzyl)carbamate]"
5.0,23,"Cc1cc(-c2ccc(CNc3cc[nH]n3)cc2)no1 [Compound 62, N-(4-(5-methylisoxazol-3-yl)benzyl)-1H-pyrazol-3-amine]"
3.1,17.3,"Cc1nc(-c2ccc(CNc3cnc(C(F)(F)F)cn3)cc2)no1 [Compound 16, N-(4-(5-methyl-1,2,4-oxadiazol-3-yl)benzyl)-5-(trifluoromethyl)pyrazin-2-amine]"
2.4,10.2,"Cc1cc(-c2ccc(CNc3cccc(=O)[nH]3)cc2)no1 [Compound 61, 6-([[4-(5-methyl-1,2-oxazol-3-yl)phenyl]methyl]amino)-1,2-dihydropyridin-2-one]"
1.9,6.6,"Cc1cc(NCc2ccc(-c3noc(C)n3)cc2)ncn1 [Compound 4, 6-methyl-N-(4-(5-methyl-1,2,4-oxadiazol-3-yl)benzyl)pyrimidin-4-amine]"
1.3,5.6,"C[C@@H](Nc1cnccn1)c1ccc(-c2noc(-c3ccccc3)n2)cc1 [Compound 37, (R)-N-(1-(4-(5-phenyl-1,2,4-oxadiazol-3-yl)phenyl)ethyl)pyrazin-2-amine]"
1.1,5.6,"Cc1nc(-c2ccc(C(C)Nc3cnccn3)cc2)no1 (centres unmarked) [Compound 26, N-(1-(4-(5-methyl-1,2,4-oxadiazol-3-yl)phenyl)ethyl)pyrazin-2-amine]"
1.2,4.7,"Cc1nc(-c2ccc(CNC(=O)Nc3ccccc3)cc2)no1 [Compound 56, 3-[[4-(5-methyl-1,2,4-oxadiazol-3-yl)phenyl]methyl]-1-phenylurea]"
0.3,1.5,"Cc1nc(-c2ccc(CNc3cnc(Cl)cn3)cc2)no1 [Compound 13, 5-chloro-N-(4-(5-methyl-1,2,4-oxadiazol-3-yl)benzyl)pyrazin-2-amine]"
